Assay: method code SF-AS, from Rouot, B.; Leclerc, G.; Wermuth, C.; Miesch, F.; Schwartz, J. (1977). Structure-activity relations and problems related to the mechanism of action of clonidine.Journal de Pharmacologie, 8(1)95-106.

SMILES	logP
COc1ccc(OC)c(NC2=NCCN2)c1	0.97
FC(F)(F)c1ccccc1NC1=NCCN1	1.42
CC(C)c1cccc(C(C)C)c1NC1=NCCN1	3.04
COc1cc(C)ccc1NC1=NCCN1	1.64
COc1cc(OC)c(NC2=NCCN2)cc1Cl	1.38
Cc1ccc(NC2=NCCN2)c(Cl)c1	1.87
Cc1cccc(Cl)c1NC1=NCCN1	1.41
Cc1cc(Cl)ccc1NC1=NCCN1	1.77
Cc1ccc(Cl)cc1NC1=NCCN1	1.8
Cc1cccc(C)c1NC1=NCCN1	1.45
Clc1ccc(NC2=NCCN2)c(Cl)c1	1.96
Oc1cc(Cl)c(NC2=NCCN2)c(Cl)c1	1.52
Fc1cccc(F)c1N=C1NCCN1	1.06
c1ccc(NC2=NCCN2)cc1	1.01
Brc1cccc(Br)c1NC1=NCCN1	1.73
Brc1ccc(NC2=NCCN2)cc1	1.75

Source: the SangsterLogP compilation
